In patent EP2114875B1, “SUBSTITUTED ARYLCYLOPENTENES AS THERAPEUTIC AGENTS” (ALLERGAN, INC., priority 2007, dated 2008):

Columns and labels:
[1] = molecular target: T1, hEP2 (Homo sapiens, UniProt P43116); test: hEP2 flipr assay; assay type: cell-based
From the text: (§1) United States Patent Application Serial No. 11/553,143, filed on October 26, 2006, describes the methods used to obtain the in vitro data in the table below.

[2] = molecular target: T1, hEP2; test: hEP2 cAMP assay; assay type: cell-based
From the text: as §1

[3] = molecular target: T1, hEP2; test: hEP2 binding; conditions: read-out: hEP2 Kl
From the text: as §1

[4] = molecular target: T2, hEP4 (Homo sapiens, UniProt P35408); test: hEP4 flipr assay; assay type: cell-based
From the text: as §1

[5] = molecular target: T2, hEP4; test: hEP4 binding
From the text: as §1

T1 sequence (P43116 whole entry): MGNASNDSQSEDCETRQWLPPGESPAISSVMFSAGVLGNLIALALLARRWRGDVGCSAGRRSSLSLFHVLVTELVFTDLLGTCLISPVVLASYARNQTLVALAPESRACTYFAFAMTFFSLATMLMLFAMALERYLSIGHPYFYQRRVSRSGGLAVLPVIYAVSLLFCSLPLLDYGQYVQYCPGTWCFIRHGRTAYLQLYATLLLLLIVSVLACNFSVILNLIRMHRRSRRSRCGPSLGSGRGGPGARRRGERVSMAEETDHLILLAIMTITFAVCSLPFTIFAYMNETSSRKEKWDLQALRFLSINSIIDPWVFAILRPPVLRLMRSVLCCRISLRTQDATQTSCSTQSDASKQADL
T2 sequence (P35408 whole entry): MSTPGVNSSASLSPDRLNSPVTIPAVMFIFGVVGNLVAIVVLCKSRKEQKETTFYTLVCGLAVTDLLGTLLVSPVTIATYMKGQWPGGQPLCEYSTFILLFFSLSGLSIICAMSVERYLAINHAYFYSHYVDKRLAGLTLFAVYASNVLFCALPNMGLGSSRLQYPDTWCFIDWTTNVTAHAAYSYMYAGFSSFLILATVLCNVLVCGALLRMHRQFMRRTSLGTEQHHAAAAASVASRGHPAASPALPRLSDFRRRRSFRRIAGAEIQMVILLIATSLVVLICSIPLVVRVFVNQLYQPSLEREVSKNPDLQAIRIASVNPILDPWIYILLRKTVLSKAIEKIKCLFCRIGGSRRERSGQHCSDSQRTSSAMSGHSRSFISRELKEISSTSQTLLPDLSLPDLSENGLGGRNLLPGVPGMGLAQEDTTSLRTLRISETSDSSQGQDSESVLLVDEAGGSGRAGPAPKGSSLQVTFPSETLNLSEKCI

For O=C(O)c1ccc(CCCC2=CC[C@@H](O)[C@@H]2COc2cc(Cl)cc(Cl)c2)s1 [Example 1, 5-{3[(4R,5S)-5-(3,5-Dichloro-phenoxymethyl)-4-hydroxy-cyclopent·1-enyl]-propyl}-thiophene-2-carboxylic acid], the EC50 [1] was 424 nM, the EC50 [2] was 4.8 nM and the Ki [3] was 81 nM. It also gave an EC50 [4] of over 10000 nM and a Ki [5] of 1580 nM.
